Source: ChEMBL document CHEMBL3217701, “Squaric acid: a valuable scaffold for developing antimalarials?” (Medchemcomm, 2012)
Blank lines part the entries; values can stand above or below the molecule they belong to.

Columns and labels:
[1] = Inhibition of Plasmodium falciparum falcipain-2 using Z-Leu-Arg-AMC as substrate after 10 mins by spectrofluorometric analysis
Papain = target: T1, Papain (Carica papaya, UniProt P00784); assay: Inhibition of papaya papain using Z-Leu-Leu-Arg-AMC as substrate measured for 30 mins by fluorescence assay
T1 sequence (P00784 whole entry): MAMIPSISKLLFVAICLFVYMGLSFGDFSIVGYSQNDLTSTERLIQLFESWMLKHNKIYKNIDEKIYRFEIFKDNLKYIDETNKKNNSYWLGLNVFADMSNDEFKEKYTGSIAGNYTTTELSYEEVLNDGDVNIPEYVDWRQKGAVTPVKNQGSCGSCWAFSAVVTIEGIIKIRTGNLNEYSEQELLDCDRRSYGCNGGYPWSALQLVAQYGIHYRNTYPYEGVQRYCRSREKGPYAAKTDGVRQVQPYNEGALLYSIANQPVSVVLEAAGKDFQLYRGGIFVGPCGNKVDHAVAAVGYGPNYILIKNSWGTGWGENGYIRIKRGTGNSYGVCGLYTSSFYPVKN

Plasmodium falciparum = assay: Antiplasmodial activity against chloroquine-resistant ring stage of Plasmodium falciparum W2 infected in human RBC after 48 hrs by flow cytometric analysis; format: functional, organism-based; conditions: W2, 48 h
[2] = Cytotoxicity against mouse NIH/3T3 cells assessed as inhibition of cell viability after 48 hrs by MTT assay; format: cell-based; conditions: NIH3T3, 48 h
HEK-293T = assay: Cytotoxicity against HEK293T cells assessed as inhibition of cell viability after 48 hrs by MTT assay; format: cell-based; conditions: Homo sapiens
[3] = Selectivity index, ratio of IC50 for HEK293T cells to IC50 for chloroquine-resistant ring stage of Plasmodium falciparum W2; format: toxicity, cell-based, HEK-293T; conditions: human; read-out: Ratio IC50

SMILES: COc1cccc(Nc2c(Nc3cccc(OC)c3)c(=O)c2=O)c1
IC50 [1]: > 50 µM
IC50 (Papain): > 5 µM
IC50 (Plasmodium falciparum): > 10 µM

SMILES: CCN(CC)CCCNc1c(NCCCN(CC)CC)c(=O)c1=O
IC50 [1]: > 50 µM
IC50 (Papain): > 10 µM
IC50 (Plasmodium falciparum): > 10 µM

SMILES: COc1c(Nc2ccc(N3CCCCC3)cc2)c(=O)c1=O
IC50 (Papain): > 10 µM
IC50 (Plasmodium falciparum): > 10 µM

SMILES: COc1c(Nc2ccc(C(C)(C)C)cc2)c(=O)c1=O
IC50 (Papain): > 10 µM
IC50 (Plasmodium falciparum): > 10 µM

SMILES: COc1c(Nc2ccc(Cl)cc2)c(=O)c1=O
IC50 (Papain): > 10 µM
IC50 (Plasmodium falciparum): > 10 µM

SMILES: COc1ccc(Nc2c(OC)c(=O)c2=O)cc1
IC50 (Papain): > 10 µM
IC50 (Plasmodium falciparum): > 10 µM

SMILES: COc1c(Nc2cccnc2)c(=O)c1=O
IC50 (Papain): > 10 µM
IC50 (Plasmodium falciparum): > 10 µM

SMILES: COc1c(NC(CO)Cc2ccccc2)c(=O)c1=O (configuration not stated)
IC50 [1]: > 50 µM
IC50 (Papain): > 10 µM
IC50 (Plasmodium falciparum): > 10 µM

SMILES: CCCCOc1c(Nc2ccc(N3CCCCC3)cc2)c(=O)c1=O
IC50 [2]: > 100 µM
IC50 (Papain): > 10 µM
IC50 (Plasmodium falciparum): 3.13 µM
IC50 (HEK-293T): > 100 µM
selectivity ratio [3]: > 32

SMILES: CCCCOc1c(Nc2ccc(C(C)(C)C)cc2)c(=O)c1=O
IC50 [1]: > 50 µM
IC50 [2]: 17.5 µM
IC50 (Papain): > 10 µM
IC50 (Plasmodium falciparum): 2.65 µM
IC50 (HEK-293T): 12.3 µM
selectivity ratio [3]: 4.7

SMILES: O=c1c(Nc2ccc(N3CCCCC3)cc2)c(Nc2ccc(N3CCCCC3)cc2)c1=O
IC50 [1]: > 50 µM
IC50 [2]: > 50 µM
IC50 (Papain): 2.8 µM
IC50 (Plasmodium falciparum): 4.16 µM
IC50 (HEK-293T): > 50 µM
selectivity ratio [3]: > 12

SMILES: CC(C)(C)c1ccc(Nc2c(Nc3ccc(C(C)(C)C)cc3)c(=O)c2=O)cc1
IC50 [1]: 24.3 µM
IC50 [2]: > 100 µM
IC50 (Papain): 8.1 µM
IC50 (Plasmodium falciparum): 0.99 µM
IC50 (HEK-293T): > 100 µM
selectivity ratio [3]: > 101

SMILES: O=c1c(Nc2cccnc2)c(Nc2cccnc2)c1=O
IC50 (Papain): > 10 µM
IC50 (Plasmodium falciparum): > 10 µM

SMILES: O=c1c(NC(CO)Cc2ccccc2)c(NC(CO)Cc2ccccc2)c1=O (configuration not stated)
IC50 (Papain): > 10 µM
IC50 (Plasmodium falciparum): > 10 µM

SMILES: CN(C)CCNc1c(NCCN(C)C)c(=O)c1=O
IC50 (Papain): > 10 µM
IC50 (Plasmodium falciparum): > 10 µM

SMILES: CCN(CC)CCNc1c(NCCN(CC)CC)c(=O)c1=O
IC50 [1]: > 50 µM
IC50 (Papain): > 10 µM
IC50 (Plasmodium falciparum): > 10 µM

SMILES: CN(C)CCCNc1c(NCCCN(C)C)c(=O)c1=O
IC50 (Papain): > 10 µM
IC50 (Plasmodium falciparum): > 10 µM

SMILES: CC(C)NCCCNc1c(NCCCNC(C)C)c(=O)c1=O
IC50 [1]: > 50 µM
IC50 (Papain): > 10 µM
IC50 (Plasmodium falciparum): > 10 µM

SMILES: CN(C)CC(C)(C)CNc1c(NCC(C)(C)CN(C)C)c(=O)c1=O
IC50 (Papain): > 10 µM
IC50 (Plasmodium falciparum): > 10 µM

SMILES: CCN(CC)CCCC(C)Nc1c(NC(C)CCCN(CC)CC)c(=O)c1=O (configuration not stated)
IC50 (Papain): > 10 µM
IC50 (Plasmodium falciparum): > 10 µM

SMILES: CCCCNc1c(NCCCC)c(=O)c1=O
IC50 (Papain): > 10 µM
IC50 (Plasmodium falciparum): > 10 µM

SMILES: CC(Nc1c(NC(C)c2ccccc2)c(=O)c1=O)c1ccccc1 (configuration not stated)
IC50 (Papain): > 10 µM
IC50 (Plasmodium falciparum): > 10 µM

SMILES: O=c1c(NC2CCCCC2)c(NC2CCCCC2)c1=O
IC50 (Papain): > 10 µM
IC50 (Plasmodium falciparum): > 10 µM

SMILES: COc1c(NNC(=O)[C@H](CC(C)C)NC(=O)OC(C)(C)C)c(=O)c1=O
IC50 [2]: > 100 µM
IC50 (Papain): > 10 µM
IC50 (Plasmodium falciparum): 8.53 µM
IC50 (HEK-293T): > 100 µM
selectivity ratio [3]: > 12

SMILES: COc1c(N(Cc2ccccc2)NC(=O)[C@H](CC(C)C)NC(=O)OC(C)(C)C)c(=O)c1=O
IC50 (Papain): > 10 µM
IC50 (Plasmodium falciparum): > 1 µM

SMILES: COc1c(N(CCc2ccccc2)NC(=O)[C@H](CC(C)C)NC(=O)OC(C)(C)C)c(=O)c1=O
IC50 [2]: > 100 µM
IC50 (Papain): > 10 µM
IC50 (Plasmodium falciparum): 6.36 µM
IC50 (HEK-293T): > 100 µM
selectivity ratio [3]: > 16

SMILES: COc1c(NNC(=O)[C@H](CC(C)C)NC(=O)N2CCOCC2)c(=O)c1=O
IC50 (Papain): > 10 µM
IC50 (Plasmodium falciparum): > 10 µM

SMILES: COc1c(N(CCc2ccccc2)NC(=O)[C@H](CC(C)C)NC(=O)N2CCOCC2)c(=O)c1=O
IC50 (Papain): > 10 µM
IC50 (Plasmodium falciparum): > 10 µM

SMILES: COc1c(N(CCc2ccccc2)NC(=O)[C@H](CC(C)C)NC(=O)OCc2ccccc2)c(=O)c1=O
IC50 [2]: > 100 µM
IC50 (Papain): > 10 µM
IC50 (Plasmodium falciparum): 2.99 µM
IC50 (HEK-293T): > 100 µM
selectivity ratio [3]: > 33

SMILES: COc1c(N(CCc2ccccc2)NC(=O)CNC(=O)OCc2ccccc2)c(=O)c1=O
IC50 [2]: > 100 µM
IC50 (Papain): > 10 µM
IC50 (Plasmodium falciparum): 9.36 µM
IC50 (HEK-293T): > 100 µM
selectivity ratio [3]: > 11

SMILES: COc1c(N(CCc2ccccc2)NC(=O)[C@H](Cc2ccccc2)NC(=O)OCc2ccccc2)c(=O)c1=O
IC50 [2]: > 100 µM
IC50 (Papain): > 10 µM
IC50 (Plasmodium falciparum): 3.14 µM
IC50 (HEK-293T): > 100 µM
selectivity ratio [3]: > 32

SMILES: CCCCOc1c(NNC(=O)[C@H](CC(C)C)NC(=O)OC(C)(C)C)c(=O)c1=O
IC50 (Papain): > 10 µM
IC50 (Plasmodium falciparum): > 10 µM

SMILES: CCCCOc1c(N(CCc2ccccc2)NC(=O)[C@H](CC(C)C)NC(=O)OC(C)(C)C)c(=O)c1=O
IC50 (Papain): > 10 µM
IC50 (Plasmodium falciparum): > 10 µM

SMILES: CCCCOc1c(NNC(=O)[C@H](CC(C)C)NC(=O)N2CCOCC2)c(=O)c1=O
IC50 [2]: > 100 µM
IC50 (Papain): > 10 µM
IC50 (Plasmodium falciparum): 9.45 µM
IC50 (HEK-293T): > 100 µM
selectivity ratio [3]: > 11

SMILES: CCCCOc1c(N(CCc2ccccc2)NC(=O)[C@H](CC(C)C)NC(=O)N2CCOCC2)c(=O)c1=O
IC50 (Papain): > 10 µM
IC50 (Plasmodium falciparum): > 10 µM

SMILES: CCCCOc1c(N(CCc2ccccc2)NC(=O)[C@H](CC(C)C)NC(=O)OCc2ccccc2)c(=O)c1=O
IC50 [2]: > 100 µM
IC50 (Papain): > 10 µM
IC50 (Plasmodium falciparum): 4.51 µM
IC50 (HEK-293T): > 100 µM
selectivity ratio [3]: > 22

SMILES: CCCCOc1c(N(CCc2ccccc2)NC(=O)CNC(=O)OCc2ccccc2)c(=O)c1=O
IC50 [2]: > 100 µM
IC50 (Papain): > 10 µM
IC50 (Plasmodium falciparum): 5.17 µM
IC50 (HEK-293T): > 100 µM
selectivity ratio [3]: > 19

SMILES: CCCCOc1c(N(CCc2ccccc2)NC(=O)[C@H](Cc2ccccc2)NC(=O)OCc2ccccc2)c(=O)c1=O
IC50 [2]: > 100 µM
IC50 (Papain): > 10 µM
IC50 (Plasmodium falciparum): 4.69 µM
IC50 (HEK-293T): > 100 µM
selectivity ratio [3]: > 21

SMILES: CC(C)C[C@H](Nc1c(Nc2ccc(C(C)(C)C)cc2)c(=O)c1=O)C(=O)NN(Cc1ccccc1)C(=O)/C=C/S(=O)(=O)c1ccccc1
IC50 (Plasmodium falciparum): > 10 µM

SMILES: CC(C)C[C@H](Nc1c(NC(CO)Cc2ccccc2)c(=O)c1=O)C(=O)NN(Cc1ccccc1)C(=O)/C=C/S(=O)(=O)c1ccccc1 (some centres not stated)
IC50 (Plasmodium falciparum): > 10 µM

IC50 [1]: 0.06 µM
IC50 (Papain): 0.12 µM
SMILES: CC(C)C[C@H](NC(=O)[C@H]1O[C@@H]1C(=O)O)C(=O)NCCCCN=C(N)N [E-64]
